Assay results taken from patent US20020137929A1, “1 - (3-heterocyclylphenyl) isothiourea, -isourea, -guanidine and -amidine herbicidal agents” (Intellectual Property Department, BASF Aktiengesellschaft, priority 1998, published 2002).

Assays:
CASOB (Sicklepod) = assay: Postemergence herbicidal evaluation; format: in vivo, Cassia obtusifolia; details: postemergence
In short: (§1)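 Each compound, dispersed in an acetone/water mix (50/50) carrying 0.5% TWEEN 20, is nozzle-sprayed at 40 psi on approximately two-week-old seedlings at about 0.0156–0.500 kg/ha. Plants are assessed 4–5 weeks afterward on a 0–9 scale relative to control; duplicate tests are averaged.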

[1] = system: CHEAL (Lambsquarters, Common); assay: Postemergence herbicidal evaluation; format: in vivo, Chenopodium album; details: postemergence
In short: as §1

GALAP (Galium) = assay: Postemergence herbicidal evaluation; format: in vivo, Galium aparine; details: postemergence
In short: as §1

ORYSAT (Rice, Tebonnet) [2] = assay: Postemergence herbicidal evaluation; format: in vivo, Oryza sativa, (L.) Tebonnet; details: postemergence
In short: as §1

ZEAMX (Corn, Field) = assay: Postemergence herbicidal evaluation; format: in vivo, Zea mays; details: postemergence
In short: as §1

AMBEL (Ragweed, Common) = assay: Preemergence herbicidal evaluation; format: in vivo, Ambrosia artemisifolia; details: preemergence, rated 4-5 weeks after treatment, 0-9 scale
In short: (§2)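 Seeds were mixed with potting soil and planted on about one inch of soil, then sprayed with test compound in aqueous acetone at about 0.0156 to 0.500 kg per hectare. Plants grew under standard greenhouse care and were visually rated 0-9 against untreated controls 4-5 weeks post-treatment.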

SETVI (Foxtail, Green) = assay: Preemergence herbicidal evaluation; format: in vivo, Setaria viridis; details: preemergence, rated 4-5 weeks after treatment, 0-9 scale
In short: as §2

[3] = system: GLXMAW (Soybean, Williams); assay: Preemergence herbicidal evaluation; format: in vivo, Glycine max, (L.) Merr. cv Williams; details: preemergence, rated 4-5 weeks after treatment, 0-9 scale
In short: as §2

ORYSAT (Rice, Tebonnet) [4] = assay: Preemergence herbicidal evaluation; format: in vivo, Oryza sativa, (L.) Tebonnet; details: preemergence, rated 4-5 weeks after treatment, 0-9 scale
In short: as §2

CYPSE (Flatsedge) [5] = assay: Preemergence weed control under flooded paddy conditions; format: in vivo, Cyperus serotinus; details: rated 3-4 weeks after treatment
In short: (§3)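 Visual injury scored 0-9 against control three to four weeks post-treatment, greenhouse-grown. Application: acetone/water (50/50) solutions dosed directly into flood water (1.5-3 cm over silt loam, planted top 0.5 cm), roughly 0.0313 to 0.500 kg/ha active ingredient.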

MOOVA (Monochoria) = assay: as above; format: in vivo, Monochoria vaginalis; details: rated 3-4 weeks after treatment
In short: as §3

CYPIR (Rice Flatsedge) = assay: Postemergence weed control under flooded paddy conditions; format: in vivo, Cyperus iria; details: postemergence weeds, rated 3 to 4 weeks after treatment
In short: (§4)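 Weeds 3 to 5 cm tall and rice seedlings at the 1.5 to 2.5 leaf stage were flooded, with water held 1.5 to 3 cm above the soil. Compounds in 50/50 v/v aqueous/acetone went into the flood water at about 0.0313 to 0.500 kg/ha. Visual 0-9 ratings versus control were made 3 to 4 weeks later.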

CYPSE (Flatsedge) [6] = assay: as above; format: in vivo, Cyperus serotinus; details: postemergence weeds, rated 3 to 4 weeks after treatment
In short: as §4

C=CCN1C(=O)C(CC(=O)NS(C)(=O)=O)SC1=Nc1cc(-n2c(=O)cc(C(F)(F)F)n(C)c2=O)c(F)cc1Cl (stereo not drawn) [Compound 96, 3-Allyl-2-{{2-chloro-5-[3,6-dihydro-3-methyl-2,6-dioxo-4-(trifluoromethyl)-1(2H)-pryimidinyl]-4-fluorophenyl}imino}-N-(methylsulfonyl)-4-oxo-5-thiazolidineacetamide]
CASOB herbicidal rating (CASOB (Sicklepod); rate 0.0156 kg/ha): 0.0
CASOB herbicidal rating (CASOB (Sicklepod); rate 0.0313 kg/ha): 0.0
CASOB herbicidal rating (CASOB (Sicklepod); rate 0.0625 kg/ha): 1.0
CASOB herbicidal rating (CASOB (Sicklepod); rate 0.1250 kg/ha): 0.0
CHEAL herbicidal rating ([1]; rate 0.0156 kg/ha): 2.0
CHEAL herbicidal rating ([1]; rate 0.0313 kg/ha): 2.0
GALAP herbicidal rating (GALAP (Galium); rate 0.0156 kg/ha): 0.0
GALAP herbicidal rating (GALAP (Galium); rate 0.0313 kg/ha): 0.0
GALAP herbicidal rating (GALAP (Galium); rate 0.0625 kg/ha): 1.0
GALAP herbicidal rating (GALAP (Galium); rate 0.1250 kg/ha): 0.0
ORYSAT herbicidal rating (ORYSAT (Rice, Tebonnet) [2]; rate 0.0156 kg/ha): 2.0
ORYSAT herbicidal rating (ORYSAT (Rice, Tebonnet) [2]; rate 0.0313 kg/ha): 2.0
ORYSAT herbicidal rating (ORYSAT (Rice, Tebonnet) [2]; rate 0.0625 kg/ha): 1.5
ORYSAT herbicidal rating (ORYSAT (Rice, Tebonnet) [2]; rate 0.1250 kg/ha): 2.0
ZEAMX herbicidal rating (ZEAMX (Corn, Field); rate 0.0156 kg/ha): 4.5
ZEAMX herbicidal rating (ZEAMX (Corn, Field); rate 0.0313 kg/ha): 4.5
ZEAMX herbicidal rating (ZEAMX (Corn, Field); rate 0.0625 kg/ha): 4.5
ZEAMX herbicidal rating (ZEAMX (Corn, Field); rate 0.1250 kg/ha): 5.0
AMBEL rating (AMBEL (Ragweed, Common); 0.0313 kg/ha): 0.0
AMBEL rating (AMBEL (Ragweed, Common); 0.0625 kg/ha): 0.0
AMBEL rating (AMBEL (Ragweed, Common); 0.1250 kg/ha): 1.0
AMBEL rating (AMBEL (Ragweed, Common); 0.2500 kg/ha): 4.0
AMBEL rating (AMBEL (Ragweed, Common); 0.5000 kg/ha): 6.0
SETVI rating (SETVI (Foxtail, Green); 0.0313 kg/ha): 1.0
SETVI rating (SETVI (Foxtail, Green); 0.0625 kg/ha): 1.0
SETVI rating (SETVI (Foxtail, Green); 0.1250 kg/ha): 0.0
SETVI rating (SETVI (Foxtail, Green); 0.2500 kg/ha): 1.0
SETVI rating (SETVI (Foxtail, Green); 0.5000 kg/ha): 4.0
GLXMAW rating ([3]; 0.0313 kg/ha): 0.0
GLXMAW rating ([3]; 0.0625 kg/ha): 0.0
GLXMAW rating ([3]; 0.1250 kg/ha): 0.0
GLXMAW rating ([3]; 0.2500 kg/ha): 3.0
GLXMAW rating ([3]; 0.5000 kg/ha): 4.0
ORYSAT rating (ORYSAT (Rice, Tebonnet) [4]; 0.0313 kg/ha): 0.0
ORYSAT rating (ORYSAT (Rice, Tebonnet) [4]; 0.0625 kg/ha): 0.0
ORYSAT rating (ORYSAT (Rice, Tebonnet) [4]; 0.1250 kg/ha): 0.0
ORYSAT rating (ORYSAT (Rice, Tebonnet) [4]; 0.2500 kg/ha): 1.0
ORYSAT rating (ORYSAT (Rice, Tebonnet) [4]; 0.5000 kg/ha): 2.0
CYPSE herbicidal effect rating (CYPSE (Flatsedge) [5]; 0.0313 kg/ha): 0.0
CYPSE herbicidal effect rating (CYPSE (Flatsedge) [5]; 0.0625 kg/ha): 0.0
CYPSE herbicidal effect rating (CYPSE (Flatsedge) [5]; 0.1250 kg/ha): 0.0
CYPSE herbicidal effect rating (CYPSE (Flatsedge) [5]; 0.2500 kg/ha): 0.0
MOOVA herbicidal effect rating (MOOVA (Monochoria); 0.0313 kg/ha): 2.0
MOOVA herbicidal effect rating (MOOVA (Monochoria); 0.0625 kg/ha): 2.0
MOOVA herbicidal effect rating (MOOVA (Monochoria); 0.1250 kg/ha): 3.0
MOOVA herbicidal effect rating (MOOVA (Monochoria); 0.2500 kg/ha): 3.0
Herbicidal rating CYPIR (CYPIR (Rice Flatsedge); Rate 0.0313 kg/ha): 0.0
Herbicidal rating CYPIR (CYPIR (Rice Flatsedge); Rate 0.0625 kg/ha): 5.0
Herbicidal rating CYPIR (CYPIR (Rice Flatsedge); Rate 0.1250 kg/ha): 6.0
Herbicidal rating CYPIR (CYPIR (Rice Flatsedge); Rate 0.2500 kg/ha): 6.0
Herbicidal rating CYPSE (CYPSE (Flatsedge) [6]; Rate 0.0313 kg/ha): 0.0
Herbicidal rating CYPSE (CYPSE (Flatsedge) [6]; Rate 0.0625 kg/ha): 0.0
Herbicidal rating CYPSE (CYPSE (Flatsedge) [6]; Rate 0.1250 kg/ha): 0.0
Herbicidal rating CYPSE (CYPSE (Flatsedge) [6]; Rate 0.2500 kg/ha): 0.0
